Laboratory results: patent US12630829B2, “Gene encoding cytochrome P450 and use thereof” (KUMIAI CHEMICAL INDUSTRY CO., LTD., priority 2020, dated 2026)
Entries after “also recorded” stand apart in the source; their conditions may differ.

How the values were obtained:
[1] = system: AK454412 (wheat-derived P450) co-expressed with TaCPR; assay: In vitro metabolism test using co-expression crude enzyme of AK454412 and TaCPR (LC/MS); format: in vitro ADME; details: 10 μM fenquinotrione, 1 mg crude enzyme, 1 mM β-NADPH, 30° C., 1 hour
Experimental: A single colony of the recombinant E. coli into which each of the above-described two expression constructs had been introduced was inoculated in 3 ml of LB liquid medium, followed by culturing at 37° C. and 200 rpm overnight. 2.5 mL of the resultant culture fluid was added to 250 mL of TB medium (containing 100 ppm carbenicillin and 50 ppm chloramphenicol) held in a 1 L Erlenmeyer flask, followed by culturing at 37° C. and 200 rpm until an OD600 of about 0.5 to 0.6 was obtained. After the resultant flask was cooled with ice, IPTG and aminolaevulinic acid were added thereto to final concentrations of 1 mM and 0.5 mM, respectively, followed by culturing at 20° C. and 110 rpm. 22 hours after the IPTG induction, the resultant culture fluid was centrifuged (4° C., 15,000 rpm, 1 min). A bacterial cell in the obtained 500 mL of culture fluid was suspended in 35 mL of P450 Buffer [50 mM potassium phosphate buffer (pH 7.3), 20% glycerol, 1 mM EDTA, and 1 mM DTT] to be sonicated, followed by centrifugation at 4° C. and at 6,000×g for 10 minutes. The supernatant was centrifuged at 4° C. and at 100,000×g for 1 hour, and a solution obtained by adding P450 Buffer by 1 mL to the obtained precipitate and homogenizing the resultant with a Teflon homogenizer was used as a co-expression crude enzyme solution for AK454412 and TaCPR. […]

[2] = system: Arabidopsis thaliana having AK454412 forced expression; assay: Fenquinotrione sensitivity test on MS solid medium, AK454412 forced expression; format: in vivo; details: 10,000 nM in MS solid medium, 22° C., about 10 days, evaluated subjectively
Experimental: First, a binary vector, pMLH7133-AK454412_for At, for transforming Arabidopsis thaliana was produced. With the pET-22b-AK454412 produced in Example 1 used as a template, PCR was performed using a primer set of pMLH-tplb Xba IF (Fd) and pMLH-tplb Sac IF (Rv) to obtain a DNA fragment in which XbaI/SacI recognition sequence and 15 bases of In-Fusion recognition sequence were added to a terminal of full length CDS sequence of the AK454412 gene. The obtained DNA fragment and pMLH7133 vector, having been digested with the restriction enzymes XbaI/SacI, were linked to each other with In-Fusion HD Cloning Kit (Clontech) to produce a binary vector, pMLH7133-AK454412_for At, for transforming Arabidopsis thaliana (FIG. 8). The obtained construct was introduced into Agrobacterium EHA105 strain by an electroporation method. The transformation of Arabidopsis thaliana was performed by a floral dip method using this recombinant Agrobacterium.
With a sensitivity difference from wild type Arabidopsis thaliana used as an index, it was verified whether or not the created transformant had resistance to fenquinotrione. […] The sensitivity to this drug was evaluated subjectively in accordance with the degree of chlorosis of acting symptom. […]

[3] = system: CYP81A6; details: reported so far; cited from earlier work

COc1ccc(-n2c(=O)c(C(=O)C3C(=O)CCCC3=O)nc3c(Cl)cccc32)cc1 [fenquinotrione]
metabolic degradation of fenquinotrione (production of the demethylated product, LC/MS) [1]: metabolically degrades fenquinotrione to the demethylated product; also recorded: a parent peak of fenquinotrione was reduced, and a peak of the demethylated product appeared
chlorosis symptom [2]: not observed
metabolic reactivity of CYP81A6 against the compound [3]: exhibits metabolic reactivity
